The record followed here is US11078197B2, “5-membered and bicyclic heterocyclic amides as inhibitors of rock” (BRISTOL-MYERS SQUIBB COMPANY, priority 2017, dated 2021).

In general, IC50 refers to the concentration that inhibits the measured activity by half.

Structures are written as SMILES.

The target of the assay is ROCK2 (Homo sapiens (Human), UniProt O75116). The assay can be described thus: ROCK2 assay (peptide phosphorylation, LABCHIP 3000 Reader). Format: biochemical. The following applies: 5 μM ATP, 1.5 μM peptide substrate, dose-response. As for the experimental part: After incubation, the reaction was terminated by the addition of EDTA and the phosphorylated and non-phosphorylated peptides separated using a LABCHIP®3000 Reader (Caliper Life Sciences). […] Compounds were tested in dose-response format, and the inhibition of kinase activity was calculated at each concentration of compound. […] Representative Examples were tested in the ROCK2 assay described above and found having ROCK2 inhibitory activity.
Chain of ROCK2 (O75116 whole entry, species assumed): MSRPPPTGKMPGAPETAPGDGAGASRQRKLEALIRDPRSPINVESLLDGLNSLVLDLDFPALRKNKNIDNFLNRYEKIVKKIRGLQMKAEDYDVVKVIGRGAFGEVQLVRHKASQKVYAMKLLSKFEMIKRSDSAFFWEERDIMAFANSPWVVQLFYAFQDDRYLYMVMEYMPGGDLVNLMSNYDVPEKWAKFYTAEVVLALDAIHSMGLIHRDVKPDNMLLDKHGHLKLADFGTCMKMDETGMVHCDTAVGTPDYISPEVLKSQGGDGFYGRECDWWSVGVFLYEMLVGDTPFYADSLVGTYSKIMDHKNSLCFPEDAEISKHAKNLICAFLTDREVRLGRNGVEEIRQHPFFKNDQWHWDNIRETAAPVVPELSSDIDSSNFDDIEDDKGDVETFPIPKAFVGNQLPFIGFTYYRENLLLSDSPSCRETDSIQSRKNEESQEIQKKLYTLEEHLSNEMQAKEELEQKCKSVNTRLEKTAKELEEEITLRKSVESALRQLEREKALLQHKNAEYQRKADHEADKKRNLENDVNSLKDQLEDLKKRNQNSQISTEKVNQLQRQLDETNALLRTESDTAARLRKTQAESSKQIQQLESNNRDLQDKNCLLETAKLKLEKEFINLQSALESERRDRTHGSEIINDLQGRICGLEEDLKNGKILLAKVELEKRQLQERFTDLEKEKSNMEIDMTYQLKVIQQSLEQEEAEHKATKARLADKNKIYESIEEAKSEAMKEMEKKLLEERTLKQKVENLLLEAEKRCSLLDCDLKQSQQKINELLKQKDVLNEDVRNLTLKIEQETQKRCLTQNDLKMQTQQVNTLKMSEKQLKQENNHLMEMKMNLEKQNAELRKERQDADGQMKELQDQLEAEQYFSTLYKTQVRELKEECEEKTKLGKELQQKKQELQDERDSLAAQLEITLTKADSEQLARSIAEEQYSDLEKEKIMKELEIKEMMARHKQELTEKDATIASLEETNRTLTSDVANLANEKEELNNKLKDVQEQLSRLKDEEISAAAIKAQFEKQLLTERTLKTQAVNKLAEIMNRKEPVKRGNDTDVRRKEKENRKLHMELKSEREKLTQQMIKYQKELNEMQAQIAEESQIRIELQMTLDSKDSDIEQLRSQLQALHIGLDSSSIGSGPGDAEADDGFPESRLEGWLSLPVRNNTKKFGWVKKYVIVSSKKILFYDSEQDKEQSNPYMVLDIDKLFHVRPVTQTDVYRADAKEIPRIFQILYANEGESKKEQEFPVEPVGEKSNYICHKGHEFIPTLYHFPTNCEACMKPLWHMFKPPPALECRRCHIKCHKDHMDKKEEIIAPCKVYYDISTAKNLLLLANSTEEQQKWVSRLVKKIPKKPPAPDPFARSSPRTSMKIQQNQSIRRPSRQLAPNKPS

Consider `Cc1ccc2c(C(N)=O)c(O[C@H]3C[C@@]4(C[C@H](NC(=O)c5nn(C(F)F)c6cc(OCC(C)(C)O)ccc56)C4)C3)nn2c1` (stereo partly shown) [Example 126, 1-(difluoromethyl)-6-(2-hydroxy-2-methylpropoxy)-N-[(4s)-6-({3-carbamoyl-6-methylpyrazolo[1,5-a]pyridin-2-yl}oxy)spiro[3.3]heptan-2-yl]-1H-indazole-3-carboxamide], for which the IC50 was found to be 46.4 nM. In the case of `Cc1nc(NCC(C)C)sc1C(=O)N[C@H]1C[C@]2(C1)C[C@H](Oc1nc3c(cc1C(N)=O)COCC3)C2` (stereo partly shown) [Example 145, 4-methyl-2-[(2-methylpropyl)amino]-N-[(4s)-6-({3-carbamoyl-5H,7H,8H-pyrano[4,3-b]pyridin-2-yl}oxy)spiro[3.3]heptan-2-yl]-1,3-thiazole-5-carboxamide] it was 111 nM; in that of `[H][C@]1(Oc2nc(C3CC3)sc2C(N)=O)C[C@]2(C[C@@H](NC(=O)c3nc(C(F)(F)F)n4cc(-n5ccccc5=O)ccc34)C2)C1` (stereo partly drawn) [Example 3, 2-Cyclopropyl-4-(((aR)-6-(6-(2-oxopyridin-1(2H)-yl)-3-(trifluoromethyl)imidazo[1,5-a]pyridine-1-carboxamido)spiro[3.3]heptan-2-yl)oxy)thiazole-5-carboxamide], 68.8 nM.

The molecule `Cc1c(C(=O)N[C@H]2C[C@]3(C2)C[C@H](Oc2nn(C4CC4)cc2C(N)=O)C3)cnn1-c1ccccc1` (stereo partly drawn) [Example 65, 1-cyclopropyl-3-{[(aR)-6-(5-methyl-1-phenyl-1H-pyrazole-4-amido)spiro[3.3]heptan-2-yl]oxy}-1H-pyrazole-4-carboxamide] showed an IC50 of 141 nM. In the case of `CN1CCN(c2ccc3c(C(=O)N[C@H]4C[C@]5(C4)C[C@H](Oc4nn(C)cc4C(N)=O)C5)cnn3c2)CC1` (stereo partly drawn) [Example 35, 1-methyl-3-({(aR)-6-[6-(4-methylpiperazin-1-yl)pyrazolo[1,5-a]pyridine-3-amido]spiro[3.3]heptan-2-yl}oxy)-1H-pyrazole-4-carboxamide] it was 202 nM. Take `COc1cccc2c(C(N)=O)c(O[C@H]3C[C@@]4(C[C@H](NC(=O)c5nn(C(F)F)c6cc(OCC(C)(C)O)ccc56)C4)C3)nn12` (stereo partly shown) [Example 138, 1-(difluoromethyl)-6-(2-hydroxy-2-methylpropoxy)-N-[(4s)-6-({3-carbamoyl-7-methoxypyrazolo[1,5-a]pyridin-2-yl}oxy)spiro[3.3]heptan-2-yl]-1H-indazole-3-carboxamide]: inhibition was half-maximal at 22 nM (IC50). The molecule `Cc1c(C(=O)N[C@H]2C[C@]3(C2)C[C@H](Oc2nc(C4CC4)sc2C(N)=O)C3)cnn1-c1ccc(Cl)cc1` (stereo partly drawn) [Example 45, 2-cyclopropyl-4-{[(aR)-6-[1-(4-chlorophenyl)-5-methyl-1H-pyrazole-4-amido]spiro[3.3]heptan-2-yl]oxy}-1,3-thiazole-5-carboxamide] registered an IC50 of 25 nM. In the case of `NC(=O)c1sc(C2CC2)nc1O[C@H]1C[C@@]2(C[C@H](NC(=O)c3nc(C(F)(F)F)n4ccccc34)C2)C1` (stereo partly drawn) [Example 64, 2-cyclopropyl-4-{[(aR)-6-[3-(trifluoromethyl)imidazo[1,5-a]pyridine-1-amido]spiro[3.3]heptan-2-yl]oxy}-1,3-thiazole-5-carboxamide], the IC50 stood at 11.4 nM.

`COc1ccc(-n2ncc(C(=O)N[C@H]3C[C@]4(C3)C[C@H](Oc3nn(C)cc3C(N)=O)C4)c2C)cn1` (stereo partly drawn) [Example 48, 1-(6-methoxypyridin-3-yl)-5-methyl-N-[(aR)-6-[(4-carbamoyl-1-methyl-1H-pyrazol-3-yl)oxy]spiro[3.3]heptan-2-yl]-1H-pyrazole-4-carboxamide] showed an IC50 of 685 nM. As to `Cc1c(C(=O)N[C@H]2C[C@]3(C2)C[C@H](Oc2nc4c(cnn4C)cc2C(N)=O)C3)cnn1-c1ccc(-c2cnn(C)c2)cc1` (stereo partly shown) [Example 153, 5-methyl-1-[4-(1-methyl-1H-pyrazol-4-yl)phenyl]-N-[(4s)-6-({5-carbamoyl-1-methyl-1H-pyrazolo[3,4-b]pyridin-6-yl}oxy)spiro[3.3]heptan-2-yl]-1H-pyrazole-4-carboxamide], the IC50 turned out to be 0.8 nM. This IC50 lies about 860-fold lower than the previous one.

On to `Cc1nc(O[C@H]2C[C@@]3(C[C@H](NC(=O)c4cnn5cc(OCC(F)F)ccc45)C3)C2)c(C(N)=O)s1` (stereo partly drawn) [Example 70, 2-methyl-4-{[(aR)-6-[6-(2,2-difluoroethoxy)pyrazolo [1,5-a]pyridine-3-amido]spiro[3.3]heptan-2-yl]oxy}-1,3-thiazole-5-carboxamide], for which 45.4 nM corresponded to half-maximal inhibition (IC50). In the case of `Cn1cc(C(N)=O)c(O[C@H]2C[C@@]3(C[C@H](NC(=O)c4cnn5cc(N6CC7(COC7)C6)ccc45)C3)C2)n1` (stereo partly drawn) [Example 33, 1-methyl-3-{[(aR)-6-(6-{2-oxa-6-azaspiro[3.3]heptan-6-yl}pyrazolo[1,5-a]pyridine-3-amido)spiro[3.3]heptan-2-yl]oxy}-1H-pyrazole-4-carboxamide] it was 347 nM; in that of `CC(C)(O)COc1ccc2c(C(=O)N[C@H]3C[C@]4(C3)C[C@H](Oc3nn5ccc(-c6ccc(F)nc6)cc5c3C(N)=O)C4)nn(C(F)F)c2c1` (stereo partly shown) [Example 136, 1-(difluoromethyl)-6-(2-hydroxy-2-methylpropoxy)-N-[(4s)-6-{[3-carbamoyl-5-(6-fluoropyridin-3-yl)pyrazolo[1,5-a]pyridin-2-yl]oxy}spiro[3.3]heptan-2-yl]-1H-indazole-3-carboxamide], 112 nM; in that of `Cc1sc2cc(C(N)=O)c(O[C@H]3C[C@@]4(C[C@H](NC(=O)c5cnn(-c6ccc(F)cc6F)c5C)C4)C3)nc2c1C` (stereo partly shown) [Example 161, 1-(2,4-difluorophenyl)-5-methyl-N-[(4s)-6-({6-carbamoyl-2,3-dimethylthieno[3,2-b]pyridin-5-yl}oxy)spiro[3.3]heptan-2-yl]-1H-pyrazole-4-carboxamide], 223 nM. With `CC(C)(O)COc1ccc2c(C(=O)NC3CC4(C3)CC(Oc3nc5ncccc5cc3C(N)=O)C4)cnn2c1C1CC1` [Example 7, 2-(((aR)-6-(7-Cyclopropyl-6-(2-hydroxy-2-methylpropoxy)pyrazolo[1,5-a]pyridine-3-carboxamido)spiro[3.3]heptan-2-yl)oxy)-1,8-naphthyridine-3-carboxamide], inhibition was half-maximal at 4.8 nM (IC50).

`Cc1c(C(=O)N[C@H]2C[C@]3(C2)C[C@H](Oc2nc4c(cnn4C)cc2C(N)=O)C3)cnn1-c1ccc(C#N)cc1` (stereo partly shown) [Example 152, 1-(4-cyanophenyl)-5-methyl-N-[(4s)-6-({5-carbamoyl-1-methyl-1H-pyrazolo[3,4-b]pyridin-6-yl}oxy)spiro[3.3]heptan-2-yl]-1H-pyrazole-4-carboxamide]: the IC50 came to 6.3 nM. Turning to `NC(=O)c1cc2sccc2nc1OC1CC2(CC(NC(=O)C3CC(=O)N(Cc4ccc(Cl)cc4)C3)C2)C1` (single isomer, unassigned) [Example 80, N-[6-({6-carbamoylthieno[3,2-b]pyridin-5-yl}oxy)spiro[3.3]heptan-2-yl]-1-[(4-chlorophenyl)methyl]-5-oxopyrrolidine-3-carboxamide], the IC50 is 2340 nM. The result for `Cn1ncc2cc(C(N)=O)c(O[C@H]3C[C@@]4(C[C@H](NC(=O)c5cc(-c6ccc(S(C)(=O)=O)cc6)n(C(F)F)n5)C4)C3)nc21` (stereo partly shown) [Example 154, 1-(difluoromethyl)-5-(4-methanesulfonylphenyl)-N-[(4s)-6-({5-carbamoyl-1-methyl-1H-pyrazolo[3,4-b]pyridin-6-yl}oxy)spiro[3.3]heptan-2-yl]-1H-pyrazole-3-carboxamide] reads 2.3 nM; that for `Cc1cccc2c(C(N)=O)c(O[C@H]3C[C@@]4(C[C@H](NC(=O)c5nn(C(F)F)c6cc(OCC(C)(C)O)ccc56)C4)C3)nn12` (stereo partly shown) [Example 133, 1-(difluoromethyl)-6-(2-hydroxy-2-methylpropoxy)-N-[(4s)-6-({3-carbamoyl-7-methylpyrazolo[1,5-a]pyridin-2-yl}oxy)spiro[3.3]heptan-2-yl]-1H-indazole-3-carboxamide], 20.2 nM. As to `Cc1c(C(=O)N[C@H]2C[C@]3(C2)C[C@H](Oc2nc4c(cnn4C)cc2C(N)=O)C3)cnn1-c1ccc(S(C)(=O)=O)cc1` (stereo partly shown) [Example 150, 1-(4-methanesulfonylphenyl)-5-methyl-N-[(4s)-6-({5-carbamoyl-1-methyl-1H-pyrazolo[3,4-b]pyridin-6-yl}oxy)spiro[3.3]heptan-2-yl]-1H-pyrazole-4-carboxamide], the IC50 worked out at 7.1 nM. The molecule `NC(=O)c1cc2c(nc1OC1CC3(CC(NC(=O)c4cnn5ccccc45)C3)C1)CCOC2` (stereo not shown) [Example 81, 2-[(6-{pyrazolo[1,5-a]pyridine-3-amido}spiro[3.3]heptan-2-yl)oxy]-5H,7H,8H-pyrano[4,3-b]pyridine-3-carboxamide] gave an IC50 of 323 nM. The result for `Cc1c(C(=O)N[C@H]2C[C@]3(C2)C[C@H](Oc2nc(C4CC4)sc2C(N)=O)C3)cnn1-c1ccc(C#N)cc1` (stereo partly drawn) [Example 44, 2-cyclopropyl-4-{[(aR)-6-[1-(4-cyanophenyl)-5-methyl-1H-pyrazole-4-amido]spiro[3.3]heptan-2-yl]oxy}-1,3-thiazole-5-carboxamide] reads 25.2 nM; that for `Cc1nc(O[C@H]2C[C@@]3(C[C@H](NC(=O)c4cnn(-c5ccc(C#N)cc5)c4C)C3)C2)c(C(N)=O)s1` (stereo partly drawn) [Example 43, 2-methyl-4-{[(aR)-6-[1-(4-cyanophenyl)-5-methyl-1H-pyrazole-4-amido]spiro[3.3]heptan-2-yl]oxy}-1,3-thiazole-5-carboxamide], 119 nM.

For `Cn1ncc2cc(C(N)=O)c(O[C@H]3C[C@@]4(C[C@H](NC(=O)c5nn(CC(F)F)c6cc(OCC(C)(C)O)ccc56)C4)C3)nc21` (stereo partly shown) [Example 159, 1-(2,2-difluoroethyl)-6-(2-hydroxy-2-methylpropoxy)-N-[(4s)-6-({5-carbamoyl-1-methyl-1H-pyrazolo[3,4-b]pyridin-6-yl}oxy)spiro[3.3]heptan-2-yl]-1H-indazole-3-carboxamide], half-maximal inhibition (IC50) required 1.1 nM. Take `CC(C)(O)COc1ccc2c(C(=O)NC3CC4(C3)CC(Oc3nc5ccsc5cc3C(N)=O)C4)cnn2c1` (stereo not shown) [Example 76, 5-({6-[6-(2-hydroxy-2-methylpropoxy)pyrazolo[1,5-a]pyridine-3-amido]spiro[3.3]heptan-2-yl}oxy)thieno[3,2-b]pyridine-6-carboxamide]: the midpoint of inhibition, the IC50, lay at 6.8 nM.
